Calls of active or inactive are those of the source. The rule behind the calls is not given here.

The test system of this series is CCRIS mutagenicity, Ames/micronucleus/aberration tests. Description: CCRIS mutagenicity studies.
The mark [1] stands for this setting: Test System: AMES SALMONELLA TYPHIMURIUM, Strain/Indicator: TA98, Metabolic Activation: NONE, Method: PREINCUBATION
The mark [2] stands for this setting: Test System: AMES SALMONELLA TYPHIMURIUM, Strain/Indicator: TA100, Metabolic Activation: NONE, Method: PREINCUBATION
The mark [3] stands for this setting: Test System: E. COLI, Strain/Indicator: WP2 UVRA, Metabolic Activation: NONE, Method: STANDARD PLATE.
The mark [4] stands for this setting: Test System: AMES SALMONELLA TYPHIMURIUM, Strain/Indicator: TA98, Metabolic Activation: NONE, Method: STANDARD PLATE.
[5] abbreviates: Test System: AMES SALMONELLA TYPHIMURIUM, Strain/Indicator: TA100, Metabolic Activation: NONE, Method: STANDARD PLATE.

Consider `NCCCNCCSP(=O)(O)O`, for which the mutagenic call (End Point: In vivo micronucleus, Test System: Bone marrow polychromatic erythrocytes, Species: Mouse, Strain/Sex: C57BL/6J/Male, Route: Intraperitoneal) is “inactive; negative (significant increase in pce/nce ratio only when administered before ga”.

`c1ccc2occc2c1`: the mutagenic call is, setting by setting: (Test System: AMES SALMONELLA TYPHIMURIUM, Strain/Indicator: TA98, Metabolic Activation: HAMSTER, LIVER, S-9, AROCLOR 1254, Method: PREINCUBATION) “inactive; negative”; under setting [1], “inactive; negative”; (Test System: AMES SALMONELLA TYPHIMURIUM, Strain/Indicator: TA98, Metabolic Activation: RAT, LIVER, S-9, AROCLOR 1254, Method: PREINCUBATION) “inactive; negative”; (Test System: AMES SALMONELLA TYPHIMURIUM, Strain/Indicator: TA100, Metabolic Activation: HAMSTER, LIVER, S-9, AROCLOR 1254, Method: PREINCUBATION) “inactive; negative”; under setting [2], “inactive; negative”; (Test System: AMES SALMONELLA TYPHIMURIUM, Strain/Indicator: TA100, Metabolic Activation: RAT, LIVER, S-9, AROCLOR 1254, Method: PREINCUBATION) “inactive; negative”. Also, the mutagenic call (Test System: AMES SALMONELLA TYPHIMURIUM, Strain/Indicator: TA1535, Metabolic Activation: HAMSTER, LIVER, S-9, AROCLOR 1254, Method: PREINCUBATION) was “inactive; negative”; the mutagenic call (Test System: AMES SALMONELLA TYPHIMURIUM, Strain/Indicator: TA1535, Metabolic Activation: NONE, Method: PREINCUBATION) was “inactive; negative”; the mutagenic call (Test System: AMES SALMONELLA TYPHIMURIUM, Strain/Indicator: TA1535, Metabolic Activation: RAT, LIVER, S-9, AROCLOR 1254, Method: PREINCUBATION) is “inactive; negative”; the mutagenic call (Test System: AMES SALMONELLA TYPHIMURIUM, Strain/Indicator: TA1537, Metabolic Activation: HAMSTER, LIVER, S-9, AROCLOR 1254, Method: PREINCUBATION) was “inactive; negative”; the mutagenic call (Test System: AMES SALMONELLA TYPHIMURIUM, Strain/Indicator: TA1537, Metabolic Activation: NONE, Method: PREINCUBATION) is “inactive; negative”; the mutagenic call (Test System: AMES SALMONELLA TYPHIMURIUM, Strain/Indicator: TA1537, Metabolic Activation: RAT, LIVER, S-9, AROCLOR 1254, Method: PREINCUBATION) is “inactive; negative”. In addition, the mutagenic call (Test System: MOUSE LYMPHOMA, Strain/Indicator: L5178Y (TK+/TK-), Metabolic Activation: NONE, Method: SUSPENSION/PLATE) was “active; positive”.

Turning to `COc1ccc(N)c(C)c1`, the mutagenic call (Test System: AMES SALMONELLA TYPHIMURIUM, Strain/Indicator: TA98, Metabolic Activation: HAMSTER, LIVER, S-9, AROCLOR 1254 (30%), Method: PREINCUBATION) is “inactive; negative”; the mutagenic call under setting [1] is “inactive; negative”; the mutagenic call (Test System: AMES SALMONELLA TYPHIMURIUM, Strain/Indicator: TA98, Metabolic Activation: RAT, LIVER, S-9, AROCLOR 1254 (30%), Method: PREINCUBATION) is “inactive; negative”; the mutagenic call (Test System: AMES SALMONELLA TYPHIMURIUM, Strain/Indicator: TA100, Metabolic Activation: HAMSTER, LIVER, S-9, AROCLOR 1254 (30%), Method: PREINCUBATION) is “active; positive”; the mutagenic call under setting [2] is “inactive; negative”; the mutagenic call (Test System: AMES SALMONELLA TYPHIMURIUM, Strain/Indicator: TA100, Metabolic Activation: RAT, LIVER, S-9, AROCLOR 1254 (30%), Method: PREINCUBATION) was “inactive; negative”. Further, the mutagenic call by setting is: (Test System: E. COLI, Strain/Indicator: WP2 UVRA, Metabolic Activation: HAMSTER, LIVER, S-9, AROCLOR 1254, Method: STANDARD PLATE) “inactive; negative”; (Test System: E. COLI, Strain/Indicator: WP2 UVRA, Metabolic Activation: HAMSTER, LIVER, S-9, Method: STANDARD PLATE) “inactive; negative”; (Test System: E. COLI, Strain/Indicator: WP2 UVRA, Metabolic Activation: MOUSE, LIVER, S-9, AROCLOR 1254, Method: STANDARD PLATE) “inactive; negative”; (Test System: E. COLI, Strain/Indicator: WP2 UVRA, Metabolic Activation: MOUSE, LIVER, S-9, Method: STANDARD PLATE) “inactive; negative”; under setting [3], “inactive; negative”; (Test System: E. COLI, Strain/Indicator: WP2 UVRA, Metabolic Activation: RAT, LIVER, S-9, AROCLOR 1254, Method: STANDARD PLATE) “inactive; negative”. Moreover, for the setting “Test System: E. COLI, Strain/Indicator: WP2 UVRA, Metabolic Activation: RAT, LIVER, S-9, Method: STANDARD PLATE”, the mutagenic call is “inactive; negative”.

Turning to `COC(=O)c1cc2ccc3cccnc3c2[nH]1`, the mutagenic call runs as follows: under setting [4], “inactive; negative”; (Test System: E. COLI, Strain/Indicator: WP2 TM9, Metabolic Activation: NONE, Method: STANDARD PLATE) “inactive; negative”.

Regarding `BrCc1cccc2c1-c1cccc3cccc-2c13`, the mutagenic call under setting [4] is “active; positive” and the mutagenic call under setting [5] is “active; positive”.

On to `ONc1ccc(-c2ccccc2)cc1`, for which the mutagenic call is “active; positive” (Test System: AMES SALMONELLA TYPHIMURIUM, Strain/Indicator: TA98(1,8-DNP6), Metabolic Activation: NONE, Method: PREINCUBATION); “active; positive” under setting [1]; “active; positive” under setting [4]; “active; positive” (Test System: AMES SALMONELLA TYPHIMURIUM, Strain/Indicator: TA98, Metabolic Activation: S-9, Method: STANDARD PLATE); “active; positive” under setting [5]; “active; positive” (Test System: AMES SALMONELLA TYPHIMURIUM, Strain/Indicator: TA100, Metabolic Activation: S-9, Method: STANDARD PLATE). The mutagenic call is, setting by setting: (Test System: AMES SALMONELLA TYPHIMURIUM, Strain/Indicator: TA1535, Metabolic Activation: NONE, Method: STANDARD PLATE) “inactive; negative”; (Test System: AMES SALMONELLA TYPHIMURIUM, Strain/Indicator: YG1024, Metabolic Activation: NONE, Method: PREINCUBATION) “active; positive”; (Test System: E. COLI, Strain/Indicator: WP2, Metabolic Activation: NONE, Method: PREINCUBATION) “active; positive”; (Test System: E. COLI, Strain/Indicator: WP2 UVRA(P), Metabolic Activation: NONE, Method: STANDARD PLATE) “active; positive”; (Test System: E. COLI, Strain/Indicator: WP2 UVRA, Metabolic Activation: NONE, Method: FLUCTUATION TEST) “active; positive”; (Test System: E. COLI, Strain/Indicator: WP2 UVRA, Metabolic Activation: NONE, Method: PREINCUBATION) “active; positive”. In addition, the mutagenic call under setting [3] is “active; positive”.

Turning to `COc1ccc([Se]c2ccc(OC)cc2)cc1`, the mutagenic call is “inactive; negative” (Test System: AMES SALMONELLA TYPHIMURIUM, Strain/Indicator: TA97A, Metabolic Activation: NONE, Method: STANDARD PLATE) and “active; positive” under setting [5].

Values taken from PubChem BioAssay AID1259407 (Chemical Carcinogenesis Research Information System (CCRIS), 2018).
